We go through 25 molecules from ChEMBL document CHEMBL5500369, “Design, synthesis, and biological evaluation of 5-(1H-indol-5-yl)isoxazole-3-carboxylic acids as novel xanthine oxidase inhibitors” (Eur J Med Chem, 2024).

pIC50, pKi: −log10 of the molar value. Bounds are passed on as bounds.

T1 sequence (P80457 whole entry): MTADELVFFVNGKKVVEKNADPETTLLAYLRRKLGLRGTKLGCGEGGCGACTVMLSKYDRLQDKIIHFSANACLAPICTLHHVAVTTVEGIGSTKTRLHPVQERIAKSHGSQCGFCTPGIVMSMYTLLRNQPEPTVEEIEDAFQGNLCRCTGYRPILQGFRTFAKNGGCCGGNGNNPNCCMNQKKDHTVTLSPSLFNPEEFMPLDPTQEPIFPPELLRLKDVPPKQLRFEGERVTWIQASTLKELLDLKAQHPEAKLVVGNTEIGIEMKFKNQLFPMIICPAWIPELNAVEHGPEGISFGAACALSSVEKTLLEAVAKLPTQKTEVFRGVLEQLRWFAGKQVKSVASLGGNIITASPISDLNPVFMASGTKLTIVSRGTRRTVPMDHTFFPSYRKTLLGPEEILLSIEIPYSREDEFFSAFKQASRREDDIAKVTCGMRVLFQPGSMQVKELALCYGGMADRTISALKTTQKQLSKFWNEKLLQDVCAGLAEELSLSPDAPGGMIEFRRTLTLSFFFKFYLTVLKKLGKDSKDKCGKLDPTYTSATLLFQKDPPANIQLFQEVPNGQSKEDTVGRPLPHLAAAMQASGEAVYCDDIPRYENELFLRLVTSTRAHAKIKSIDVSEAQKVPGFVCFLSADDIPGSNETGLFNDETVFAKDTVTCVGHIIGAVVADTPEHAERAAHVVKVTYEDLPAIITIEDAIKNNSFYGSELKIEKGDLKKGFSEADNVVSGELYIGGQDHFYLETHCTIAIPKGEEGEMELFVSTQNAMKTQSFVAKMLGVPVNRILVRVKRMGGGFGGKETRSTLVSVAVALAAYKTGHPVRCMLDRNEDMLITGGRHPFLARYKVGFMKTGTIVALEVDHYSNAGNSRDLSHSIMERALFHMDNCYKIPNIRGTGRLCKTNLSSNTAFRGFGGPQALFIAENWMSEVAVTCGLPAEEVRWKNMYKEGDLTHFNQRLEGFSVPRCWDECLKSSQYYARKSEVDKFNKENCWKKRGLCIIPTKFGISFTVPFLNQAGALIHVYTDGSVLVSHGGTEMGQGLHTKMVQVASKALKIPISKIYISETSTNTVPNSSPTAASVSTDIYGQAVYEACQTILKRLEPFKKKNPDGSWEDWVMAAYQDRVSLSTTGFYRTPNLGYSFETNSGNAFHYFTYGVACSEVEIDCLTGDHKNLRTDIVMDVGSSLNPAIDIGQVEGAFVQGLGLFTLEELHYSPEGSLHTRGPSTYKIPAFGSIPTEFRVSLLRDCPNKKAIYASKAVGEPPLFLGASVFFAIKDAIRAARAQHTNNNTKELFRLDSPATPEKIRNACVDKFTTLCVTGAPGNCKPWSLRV

The first series addresses T1, Xanthine dehydrogenase/oxidase (Bos taurus, UniProt P80457). Nature of the series: Potency index, ratio of Allopurinol IC50 to test compound IC50 for inhibition of bovine xanthine oxidase using xanthine as substrate by measuring uric acid formation measured 30 secs interval for 5 mins by spectrophotometry analysis. The settings on record: cattle.
With `CC(C)n1cc(C#N)c2cc(-c3cc(C(=O)O)no3)ccc21`, the “Ratio IC50” value worked out at 22.

In a further series the target is T1, Xanthine dehydrogenase/oxidase. Nature of the series: Inhibition of bovine xanthine oxidase using xanthine as substrate at 10.0 uM measured 30 secs interval for 5 mins by spectrophotometry relative to control. The conditions noted are these: cattle.
For the molecule `CC(C)=Cn1ccc2cc(-c3cc(C(=O)O)no3)ccc21`, the inhibition at 10 µM was less than 50%.

In the case of `CCOC(=O)c1cc(-c2ccc3c(c2)c(C#N)cn3C(C)C)on1`, the inhibition at 10 µM is less than 50%.

The next series shares this target. As to the kind of experiment: Mixed type inhibition of bovine xanthine oxidase assessed as increase in Km with decrease in Vmax using xanthine as substrate at upto 0.30 uM by Lineweaver-Burk plot analysis. The conditions noted are these: cattle, 0.3 µM.
As for `CC(C)n1cc(C#N)c2cc(-c3cc(C(=O)O)no3)ccc21`, the “inhibition (INH)” value is reported as “Active”.

For another series the target is unchanged. Nature of the series: Inhibition of bovine xanthine oxidase using xanthine as substrate by measuring uric acid formation measured 30 secs interval for 5 mins by spectrophotometry analysis.
Settings: not given; call rule not given here
`CC(C)=Cn1cc(C#N)c2cc(-c3cc(C(=O)O)no3)ccc21` gave a pIC50 of 6.72.

Regarding `N#Cc1cn(Cc2ccccc2Cl)c2ccc(-c3cc(C(=O)O)no3)cc12`, the pIC50 is 6.70.

Regarding `N#Cc1c[nH]c2ccc(-c3cc(C(=O)O)no3)cc12`, the pIC50 was 5.51.

For the molecule `CC(C)CCn1cc(C#N)c2cc(-c3cc(C(=O)O)no3)ccc21`, the pIC50 was 6.42.

Regarding `CCn1cc(C#N)c2cc(-c3cc(C(=O)O)no3)ccc21`, the pIC50 is 6.25.

`Cc1ccccc1Cn1cc(C#N)c2cc(-c3cc(C(=O)O)no3)ccc21`: the negative-log IC50 (pIC50) is 6.59.

For `CC(C)n1cc(C#N)c2cc(-c3cc(C(=O)O)no3)ccc21`, the pIC50 was 6.89.

The molecule `CC(C)Cn1cc(C#N)c2cc(-c3cc(C(=O)O)no3)ccc21` had a negative-log IC50 (pIC50) of 6.62.

`CC#Cn1cc(C#N)c2cc(-c3cc(C(=O)O)no3)ccc21` gave a pIC50 of 6.24.

The molecule `C=CCn1cc(C#N)c2cc(-c3cc(C(=O)O)no3)ccc21` gave a pIC50 of 6.41.

In turn, `N#Cc1cn(Cc2ccc(F)cc2)c2ccc(-c3cc(C(=O)O)no3)cc12` had a pIC50 of 6.22.

With `N#Cc1cn(Cc2ccc(Cl)cc2)c2ccc(-c3cc(C(=O)O)no3)cc12`, the pIC50 was 5.90.

`CCCCCn1cc(C#N)c2cc(-c3cc(C(=O)O)no3)ccc21` showed a pIC50 of 6.22.

Turning to `CCCn1cc(C#N)c2cc(-c3cc(C(=O)O)no3)ccc21`, the pIC50 is 6.49.

For the molecule `CCCCn1cc(C#N)c2cc(-c3cc(C(=O)O)no3)ccc21`, the pIC50 is 6.27.

`N#Cc1cn(Cc2ccccc2F)c2ccc(-c3cc(C(=O)O)no3)cc12` had a pIC50 of 6.51.

As for `N#Cc1cn(CC2CCCC2)c2ccc(-c3cc(C(=O)O)no3)cc12`, the pIC50 was 6.57.

For the molecule `N#Cc1cn(Cc2ccc(Br)cc2)c2ccc(-c3cc(C(=O)O)no3)cc12`, the pIC50 was 5.93.

`N#Cc1cn(Cc2cccc(F)c2)c2ccc(-c3cc(C(=O)O)no3)cc12` showed a pIC50 of 5.89.

`N#Cc1cn(Cc2cccc(Cl)c2)c2ccc(-c3cc(C(=O)O)no3)cc12` showed a pIC50 of 5.74.

As to `N#Cc1cn(Cc2ccccc2)c2ccc(-c3cc(C(=O)O)no3)cc12`, the negative-log IC50 (pIC50) was 5.99.

On to `N#Cc1cn(C2CCC2)c2ccc(-c3cc(C(=O)O)no3)cc12`, for which the pIC50 is 6.60.

`N#Cc1cn(C2CCCC2)c2ccc(-c3cc(C(=O)O)no3)cc12` had a pIC50 of 6.85.

Target in another series: not listed separately
Nature of the series: Binding affinity to bovine xanthine oxidase/xanthine substrate complex assessed as inhibition constant. On the set-up: species or system Bos taurus.
Settings: not given
With `CC(C)n1cc(C#N)c2cc(-c3cc(C(=O)O)no3)ccc21`, the negative logarithm of the Ki (pKi) was 6.44.

A further series addresses T1, Xanthine dehydrogenase/oxidase. Nature of the series: Binding affinity to bovine xanthine oxidase assessed as inhibition constant.
Settings: not given
Turning to `CC(C)n1cc(C#N)c2cc(-c3cc(C(=O)O)no3)ccc21`, the pKi is 7.40.
